Reference: paper PMC10281321, “Discovery of an effective anti-inflammatory agent for inhibiting the activation of NF-κB” (Journal of Enzyme Inhibition and Medicinal Chemistry, 2023)

Key:
Assay type in all cases: cell-based
NF-κB = NF-κB transcriptional activity dual-luciferase reporter assay, TNF-α stimulated; conditions: Homo sapiens, HEK-293T, HEK293T cells transfected with NF-κB reporter plasmid, stimulated by TNF-α
Description: 4.5. NF-κB transcriptional activity assay
HEK293T cells were seeded into 96 well plate at a density of 1×10^5 cells per well. After incubated for 24 hours, cells were transfected with NF-κB reporter plasmid at 100 ng/well using lip2000.Six hours later, the medium was replaced by fresh medium containing tested compounds with different concentrations. Then incubated for another hour, TNF-α was added for a final concentration at 10 ng/mL.12 hours later, the cell lysate was collected and the RLU was measured by microplate reader. […]

[1] = tested on: LPS-stimulated RAW264.7 cells; test: NO release inhibition in LPS-stimulated RAW264.7 cells (Griess reagent); conditions: for IC50: Mus musculus, LPS-stimulated RAW264.7 cells, Griess Reagent; for anti-inflammatory activity (in words): SAR summary covering NO release and NF-κB reporter inhibition
Description: After incubated for 24 hours, cells were treated with tested compounds for different
concentrations(3.125,6.25,12.5,25 and 50μM) for 1 h, and then treated with 1 μg/mL LPS
for further 24 h. The supernatants were collected and NO level was measured using
Griess reagent (Beyotime, China). […]

[2] = Cytotoxicity by MTT assay

Row | IC50 (NF-κB) | IC50 [1] | SMILES | IC50 [2] | cytotoxicity (in words) [2] | anti-inflammatory activity (in words) [1]
1 | 0.167 ± 0.0084 µM | 3.2 ± 1.1 µM | CCc1ccc(-c2cnc(N)c(C(=O)Nc3cccc(NC(C)=O)c3)c2)cc1 [Compound 14] | > 25 µM | – | strong anti-inflammatory activity
2 | 0.532 ± 0.0135 µM | 1.1 ± 0.4 µM | CCc1ccc(-c2cnc(N)c(C(=O)Nc3ccccc3NC(C)=O)c2)cc1 [Compound 15] | 3.2 ± 0.8 µM | – | strong anti-inflammatory activity
3 | > 2 µM | > 50 µM | CCc1ccc(-c2cnc(N)c(C(=O)Nc3ccc(F)cc3)c2)cc1 [Compound 16] | > 25 µM | – | –
4 | > 2 µM | > 50 µM | CCc1ccc(-c2cnc(N)c(C(=O)Nc3ccc(Cl)cc3)c2)cc1 [Compound 17] | > 25 µM | – | –
5 | > 2 µM | > 50 µM | CCc1ccc(-c2cnc(N)c(C(=O)Nc3ccc(OC(F)(F)F)cc3)c2)cc1 [Compound 18] | > 25 µM | – | loss of anti-inflammatory activity
6 | > 2 µM | 28.5 ± 2.1 µM | CCc1ccc(NC(=O)c2cc(-c3ccc(CC)cc3)cnc2N)cc1 [Compound 19] | > 25 µM | – | –
7 | > 2 µM | 22 ± 0.8 µM | CCc1ccc(-c2cnc(N)c(C(=O)Nc3ccc(OC)cc3)c2)cc1 [Compound 20] | > 25 µM | – | –
8 | > 2 µM | > 50 µM | CCc1ccc(-c2cnc(N)c(C(=O)Nc3ccc(C(C)C)cc3)c2)cc1 [Compound 21] | > 25 µM | – | –
9 | > 2 µM | > 50 µM | CCc1ccc(-c2cnc(N)c(C(=O)Nc3ccc(C(N)=O)cc3)c2)cc1 [Compound 22] | > 25 µM | – | loss of anti-inflammatory activity
10 | > 2 µM | 32.7 ± 3.4 µM | CCc1ccc(-c2cccc(C(=O)Nc3ccc(NC(C)=O)cc3)c2)cc1 [Compound 23] | > 25 µM | – | –
11 | 0.763 ± 0.0151 µM | 14.1 ± 1.7 µM | CCc1ccc(-c2cc(C(=O)Nc3ccc(NC(C)=O)cc3)ccn2)cc1 [Compound 24] | > 25 µM | – | –
12 | 1.33 ± 0.0163 µM | 25.4 ± 3.1 µM | CCc1ccc(-c2cncc(C(=O)Nc3ccc(NC(C)=O)cc3)c2)cc1 [Compound 25] | > 25 µM | – | –
13 | 1.96 ± 0.0535 µM | 19.5 ± 3.2 µM | CCc1ccc(-c2ccnc(C(=O)Nc3ccc(NC(C)=O)cc3)c2)cc1 [Compound 26] | > 25 µM | – | –
14 | 1.11 ± 0.0124 µM | 21.5 ± 2.6 µM | CCc1ccc(-c2cc(C(=O)Nc3ccc(NC(C)=O)cc3)cnc2N)cc1 [Compound 27] | > 25 µM | – | –

The next lines start with the compound.

Row | SMILES | IC50 (NF-κB) | IC50 [1] | IC50 [2] | cytotoxicity (in words) [2] | anti-inflammatory activity (in words) [1]
15 | Cc1ccc(S(=O)(=O)/C=C/C#N)cc1 [Bay11-7082, reference compound] | 0.0915 ± 0.0103 µM | 2.1 ± 0.7 µM | 22.7 ± 3.4 µM | – | –
16 | CCc1ccc(-c2cnc(N)c(C(=O)Nc3ccccc3)c2)cc1 [Compound 6] | 1.62 ± 0.0132 µM | 19.7 ± 2.6 µM | > 25 µM | – | –
17 | CCc1ccc(-c2cnc(N)c(C(=O)Nc3ccc(C)cc3)c2)cc1 [Compound 7] | > 2 µM | 26.7 ± 3.2 µM | > 25 µM | – | –
18 | CCc1ccc(-c2cnc(N)c(C(=O)Nc3cccc(C)c3)c2)cc1 [Compound 8] | 1.329 ± 0.0115 µM | 15.2 ± 2.8 µM | > 25 µM | – | –
19 | CCc1ccc(-c2cnc(N)c(C(=O)Nc3ccccc3C)c2)cc1 [Compound 9] | > 2 µM | 30.2 ± 4 µM | > 25 µM | – | –
20 | CCc1ccc(-c2cnc(N)c(C(=O)Nc3ccc(N)cc3)c2)cc1 [Compound 10] | 0.42 ± 0.0104 µM | 2.3 ± 0.9 µM | 7.3 ± 1.2 µM | – | –
21 | CCc1ccc(-c2cnc(N)c(C(=O)Nc3cccc(N)c3)c2)cc1 [Compound 11] | 0.0958 ± 0.0062 µM | 1.7 ± 0.9 µM | > 25 µM | – | –
22 | CCc1ccc(-c2cnc(N)c(C(=O)Nc3ccccc3N)c2)cc1 [Compound 12] | 0.571 ± 0.0093 µM | 0.9 ± 0.5 µM | 4.7 ± 1 µM | – | –
23 | CCc1ccc(-c2cnc(N)c(C(=O)Nc3ccc(NC(C)=O)cc3)c2)cc1 [Compound 13] | 0.7139 ± 0.0042 µM | 10.2 ± 5.4 µM | > 25 µM | cytotoxicity is reduced | –
